Data published in patent US20080069785A1, “PEST-CONTROL COMPOSITIONS, AND METHODS AND PRODUCTS UTILIZING SAME” (priority 2004, published 2008).

Test system: cockroaches (Blattella germanica)
Test: Weeklong surface area toxicity test on cockroaches (Example 19)
Type: in vivo
Conditions: for cockroaches alive (of five): 0-1 days; for cockroaches alive (of five per cup): 3-4 days treatment
Description: In order determine the toxicity of the formulation to the insect after application to a surface over a period of time, the following test was performed. […] Cockroaches were placed in the cups on the first day following the application of the formulations, on the third day following the application of the formulations, and on the sixth day following the application of the formulations in order to monitor the toxicity of the formulations after a period of time had elapsed. The mortality of the cockroaches was then recorded at the time intervals noted. The five cockroaches placed in each cup were one week old cockroaches (Blattella germanica) which had been reared at twenty seven degrees centigrade, at sixty five percent relative humidity, and on a twelve hour light to dark photoperiod. Each of the cups had Fluon®AD1 treated sides to prevent the escape of the cockroaches.

**Q.** With `CCCCCCCCCC(C)=O` [Undecanone, 2-Undecanone] as the compound, how does the “cockroaches alive (of five)” value (0.02 μL/cm^2 (1 μL), 5 min) read?
**A.** Its value is 5.

**Q.** And the “cockroaches alive (of five)” value (0.02 μL/cm^2 (1 μL), 10 min)?
**A.** Its value is 5.

**Q.** And the “cockroaches alive (of five)” value (0.02 μL/cm^2 (1 μL), 15 min)?
**A.** The value was 5.

**Q.** What about the “cockroaches alive (of five)” value (0.02 μL/cm^2 (1 μL), 30 min) of the same compound?
**A.** The value was 5.

**Q.** And the “cockroaches alive (of five)” value (0.02 μL/cm^2 (1 μL), 60 min)?
**A.** Its value is 5.

**Q.** And the “cockroaches alive (of five)” value (0.02 μL/cm^2 (1 μL), 90 min)?
**A.** The value was 5.

**Q.** And the “cockroaches alive (of five)” value (0.02 μL/cm^2 (1 μL), 2 h)?
**A.** Its value is 5.

**Q.** And the “cockroaches alive (of five)” value (0.02 μL/cm^2 (1 μL), 4 h)?
**A.** The value was 5.

**Q.** And the “cockroaches alive (of five)” value (0.02 μL/cm^2 (1 μL), 17.5 h)?
**A.** The value was 5.

**Q.** What about the “cockroaches alive (of five)” value (0.02 μL/cm^2 (1 μL), 18 h) of the same compound?
**A.** The value was 5.

**Q.** What about the “cockroaches alive (of five)” value (0.02 μL/cm^2 (1 μL), 21 h) of the same compound?
**A.** The value was 5.

**Q.** And the “cockroaches alive (of five)” value (0.02 μL/cm^2 (1 μL), 24 h)?
**A.** The value was 5.

**Q.** What about the “cockroaches alive (of five)” value (0.02 μL/cm^2 (1 μL), 27.5 h) of the same compound?
**A.** Its value is 5.

**Q.** What about the “cockroaches alive (of five)” value (0.02 μL/cm^2 (1 μL), 29 h) of the same compound?
**A.** The value was 5.

**Q.** And the “cockroaches alive (of five)” value (0.02 μL/cm^2 (1 μL), 30 h)?
**A.** The value was 5.

**Q.** What about the “cockroaches alive (of five)” value (0.09 μL/cm^2 (5 μL), 5 min) of the same compound?
**A.** Its value is 5.

**Q.** What about the “cockroaches alive (of five)” value (0.09 μL/cm^2 (5 μL), 10 min) of the same compound?
**A.** Its value is 5.

**Q.** And the “cockroaches alive (of five)” value (0.09 μL/cm^2 (5 μL), 15 min)?
**A.** The value was 4.

**Q.** And the “cockroaches alive (of five)” value (0.09 μL/cm^2 (5 μL), 30 min)?
**A.** The value was 4.

**Q.** And the “cockroaches alive (of five)” value (0.09 μL/cm^2 (5 μL), 60 min)?
**A.** The value was 4.

**Q.** And the “cockroaches alive (of five)” value (0.09 μL/cm^2 (5 μL), 90 min)?
**A.** The value was 4.

**Q.** And the “cockroaches alive (of five)” value (0.09 μL/cm^2 (5 μL), 2 h)?
**A.** Its value is 4.

**Q.** And the “cockroaches alive (of five)” value (0.09 μL/cm^2 (5 μL), 4 h)?
**A.** The value was 4.

**Q.** And the “cockroaches alive (of five)” value (0.09 μL/cm^2 (5 μL), 17.5 h)?
**A.** The value was 4.

**Q.** And the “cockroaches alive (of five)” value (0.09 μL/cm^2 (5 μL), 18 h)?
**A.** Its value is 4.

**Q.** And the “cockroaches alive (of five)” value (0.09 μL/cm^2 (5 μL), 21 h)?
**A.** The value was 4.

**Q.** What about the “cockroaches alive (of five)” value (0.09 μL/cm^2 (5 μL), 24 h) of the same compound?
**A.** Its value is 4.

**Q.** And the “cockroaches alive (of five)” value (0.09 μL/cm^2 (5 μL), 27.5 h)?
**A.** The value was 3.

**Q.** And the “cockroaches alive (of five)” value (0.09 μL/cm^2 (5 μL), 29 h)?
**A.** Its value is 3.

**Q.** And the “cockroaches alive (of five)” value (0.09 μL/cm^2 (5 μL), 30 h)?
**A.** Its value is 3.

**Q.** And the “cockroaches alive (of five)” value (0.19 μL/cm^2 (10 μL), 5 min)?
**A.** Its value is 5.

**Q.** What about the “cockroaches alive (of five)” value (0.19 μL/cm^2 (10 μL), 10 min) of the same compound?
**A.** Its value is 5.

**Q.** And the “cockroaches alive (of five)” value (0.19 μL/cm^2 (10 μL), 15 min)?
**A.** The value was 5.

**Q.** What about the “cockroaches alive (of five)” value (0.19 μL/cm^2 (10 μL), 30 min) of the same compound?
**A.** Its value is 2.

**Q.** And the “cockroaches alive (of five)” value (0.19 μL/cm^2 (10 μL), 60 min)?
**A.** Its value is 0.

**Q.** And the “cockroaches alive (of five)” value (0.19 μL/cm^2 (10 μL), 90 min)?
**A.** Its value is 0.

**Q.** What about the “cockroaches alive (of five)” value (0.19 μL/cm^2 (10 μL), 2 h) of the same compound?
**A.** The value was 0.

**Q.** And the “cockroaches alive (of five)” value (0.19 μL/cm^2 (10 μL), 4 h)?
**A.** The value was 0.

**Q.** And the “cockroaches alive (of five)” value (0.19 μL/cm^2 (10 μL), 17.5 h)?
**A.** Its value is 0.

**Q.** And the “cockroaches alive (of five)” value (0.19 μL/cm^2 (10 μL), 18 h)?
**A.** Its value is 0.

**Q.** What about the “cockroaches alive (of five)” value (0.19 μL/cm^2 (10 μL), 21 h) of the same compound?
**A.** Its value is 0.

**Q.** What about the “cockroaches alive (of five)” value (0.19 μL/cm^2 (10 μL), 24 h) of the same compound?
**A.** Its value is 0.

**Q.** What about the “cockroaches alive (of five)” value (0.19 μL/cm^2 (10 μL), 27.5 h) of the same compound?
**A.** Its value is 0.

**Q.** What about the “cockroaches alive (of five)” value (0.19 μL/cm^2 (10 μL), 29 h) of the same compound?
**A.** The value was 0.

**Q.** And the “cockroaches alive (of five)” value (0.19 μL/cm^2 (10 μL), 30 h)?
**A.** Its value is 0.

**Q.** What about the “cockroaches alive (of five)” value (0.95 μL/cm^2 (50 μL), 5 min) of the same compound?
**A.** Its value is 0.

**Q.** And the “cockroaches alive (of five)” value (0.95 μL/cm^2 (50 μL), 10 min)?
**A.** The value was 0.

**Q.** And the “cockroaches alive (of five)” value (0.95 μL/cm^2 (50 μL), 15 min)?
**A.** The value was 0.

**Q.** And the “cockroaches alive (of five)” value (0.95 μL/cm^2 (50 μL), 30 min)?
**A.** Its value is 0.

**Q.** And the “cockroaches alive (of five)” value (0.95 μL/cm^2 (50 μL), 60 min)?
**A.** Its value is 0.

**Q.** What about the “cockroaches alive (of five)” value (0.95 μL/cm^2 (50 μL), 90 min) of the same compound?
**A.** The value was 0.

**Q.** What about the “cockroaches alive (of five)” value (0.95 μL/cm^2 (50 μL), 2 h) of the same compound?
**A.** Its value is 0.

**Q.** And the “cockroaches alive (of five)” value (0.95 μL/cm^2 (50 μL), 4 h)?
**A.** Its value is 0.

**Q.** And the “cockroaches alive (of five)” value (0.95 μL/cm^2 (50 μL), 17.5 h)?
**A.** The value was 0.

**Q.** What about the “cockroaches alive (of five)” value (0.95 μL/cm^2 (50 μL), 18 h) of the same compound?
**A.** Its value is 0.

**Q.** And the “cockroaches alive (of five)” value (0.95 μL/cm^2 (50 μL), 21 h)?
**A.** Its value is 0.

**Q.** What about the “cockroaches alive (of five)” value (0.95 μL/cm^2 (50 μL), 24 h) of the same compound?
**A.** The value was 0.

**Q.** What about the “cockroaches alive (of five)” value (0.95 μL/cm^2 (50 μL), 27.5 h) of the same compound?
**A.** The value was 0.

**Q.** And the “cockroaches alive (of five)” value (0.95 μL/cm^2 (50 μL), 29 h)?
**A.** The value was 0.

**Q.** And the “cockroaches alive (of five)” value (0.95 μL/cm^2 (50 μL), 30 h)?
**A.** Its value is 0.

**Q.** And the “cockroaches alive (of five per cup)” value (0.02 μL/cm^2 (1 μL), 5 min)?
**A.** The value was 5.

**Q.** What about the “cockroaches alive (of five per cup)” value (0.02 μL/cm^2 (1 μL), 10 min) of the same compound?
**A.** Its value is 5.

**Q.** And the “cockroaches alive (of five per cup)” value (0.02 μL/cm^2 (1 μL), 15 min)?
**A.** Its value is 5.

**Q.** What about the “cockroaches alive (of five per cup)” value (0.02 μL/cm^2 (1 μL), 30 min) of the same compound?
**A.** Its value is 5.

**Q.** What about the “cockroaches alive (of five per cup)” value (0.02 μL/cm^2 (1 μL), 60 min) of the same compound?
**A.** Its value is 5.

**Q.** And the “cockroaches alive (of five per cup)” value (0.02 μL/cm^2 (1 μL), 90 min)?
**A.** The value was 5.

**Q.** What about the “cockroaches alive (of five per cup)” value (0.02 μL/cm^2 (1 μL), 2 h) of the same compound?
**A.** The value was 5.

**Q.** And the “cockroaches alive (of five per cup)” value (0.02 μL/cm^2 (1 μL), 4 h)?
**A.** The value was 5.

**Q.** What about the “cockroaches alive (of five per cup)” value (0.02 μL/cm^2 (1 μL), 23 h) of the same compound?
**A.** Its value is 5.

**Q.** What about the “cockroaches alive (of five per cup)” value (0.02 μL/cm^2 (1 μL), 24 h) of the same compound?
**A.** The value was 5.

**Q.** And the “cockroaches alive (of five per cup)” value (0.02 μL/cm^2 (1 μL), 27 h)?
**A.** Its value is 5.

**Q.** What about the “cockroaches alive (of five per cup)” value (0.02 μL/cm^2 (1 μL), 30 h) of the same compound?
**A.** The value was 5.

**Q.** What about the “cockroaches alive (of five per cup)” value (0.09 μL/cm^2 (5 μL), 5 min) of the same compound?
**A.** The value was 5.

**Q.** What about the “cockroaches alive (of five per cup)” value (0.09 μL/cm^2 (5 μL), 10 min) of the same compound?
**A.** Its value is 5.

**Q.** What about the “cockroaches alive (of five per cup)” value (0.09 μL/cm^2 (5 μL), 15 min) of the same compound?
**A.** Its value is 5.

**Q.** What about the “cockroaches alive (of five per cup)” value (0.09 μL/cm^2 (5 μL), 30 min) of the same compound?
**A.** The value was 5.

**Q.** And the “cockroaches alive (of five per cup)” value (0.09 μL/cm^2 (5 μL), 60 min)?
**A.** Its value is 5.

**Q.** And the “cockroaches alive (of five per cup)” value (0.09 μL/cm^2 (5 μL), 90 min)?
**A.** The value was 5.

**Q.** And the “cockroaches alive (of five per cup)” value (0.09 μL/cm^2 (5 μL), 2 h)?
**A.** The value was 5.

**Q.** What about the “cockroaches alive (of five per cup)” value (0.09 μL/cm^2 (5 μL), 4 h) of the same compound?
**A.** Its value is 5.
